Experiment [1] has as its system fibroblasts of TAZ patients. Description: Respiratory growth/proliferation of fibroblasts of TAZ patients (SRB, low glucose). The class given is cell-based, human. The following applies: 96 hours; vs negative control DMSO. Here is the method:
EBS was tested for the effect thereof on the respiratory growth of fibroblasts of TAZ patients, as opposed to fibroblasts from eight different patients, carriers of mutations in the TAZ gene (suffering from Barth's syndrome).
The rate of proliferation was measured in a medium with a weak concentration of glucose (1 g/L; to force cells to use the OXPHOS system rather than glycolyse) in 384 well micro-titration plates (1200 cells/wells at T0) using the Sulforhodamine B (SRB) staining protocol at 24, 48, 72 or 96 hours after placing the cells with or without 12.15 nM of EBS.
The data are the average of 8 patients or 3 controls in triplicate, in 4 independent experiments.
The rate of proliferation was then measured under the same experimental conditions but with variable concentrations of ethaselen: The cells were analyzed 96 hours after treatment with increasing doses of ethaselen (from 150 pM to 26.1 μM). The bars represent the average of 4 replicates coming from 2 patients in 3 independent experiments.

Experiment [2] deals with mutant yeast strain taz1. The experiment is described as follows: Halos test: respiratory growth of mutant yeast strain taz1 on non-fermentable solid medium. The class given is cell-based, Saccharomyces cerevisiae. As to conditions: 100 nmoles; compared with ebselen 100 nmoles; no halo with DMSO. The source says: C/ Effect (detected by the halos test) of ebselen oxide on the respiratory growth of the mutant yeast strain taz1 on non-fermentable solid medium, in comparison with ebselen (B) and DMSO (D)
As previously described (WO2020/254632), the different mutant yeast strains were spread over the solid respiratory agar-agar based media (containing glycerol or ethanol as the unique carbon source) and exposed to filters on which the compound tested, in particular ebselen (EBS) was deposited. The dishes were then incubated at the temperature indicated (that could be 28° C. or 36° C. depending on the strain used).
More precisely, 0.125 OD of mutant cells with exponential growth were spread homogeneously with sterile glass beads in a square Petri dish (12 cm×12 cm) containing a solid respiratory medium (YPA Ethanol, 1% yeast extract, 0.5% Bacto Peptone, 40 mg/L Adenine, 2% Ethanol for sym1 and taz1; or YPA Glycerol 2% for cox2, fmc1, atp6, shy1 et A29G). […] On each dish, the DMSO (buffer) was used as negative control (upper left-hand filter). The dishes were then incubated at 28° C. (for shy1) or 36° C. (for cox2, sym1, fmc1, atp6 taz1 and A29G) for 4 to 5 days, then photographed. The improvement of the growth was evaluated after a plurality of days of incubation by the appearance of a halo of improved growth around the filter where the active ingredient was deposited.

`O=c1c2ccccc2[se]n1CCn1[se]c2ccccc2c1=O` [ethasalen, Ethaselen]: in experiment [1], the “concentration range improving respiratory growth/proliferation, lower limit” value is “about 1 nM” and the “concentration range improving respiratory growth/proliferation, upper limit” value is at most 3 µM.

For `O=C1c2ccccc2[Se](=O)N1c1ccccc1` (stereo not drawn) [ebselen oxide, 1-oxide-2-phenyl-1,2-benzisoselenazol-3(2H)-one], the “respiratory growth (halo) of mutant taz1” value in experiment [2] was “activity comparable to ebselen”.

Values taken from patent US20260000645A1, “USE OF EBSELEN OR ONE OF THE DERIVATIVES THEREOF TO TREAT MITOCHONDRIAL PATHOLOGIES OR DYSFUNCTIONS” (ASSOCIATION FRANCAISE CONTRE LES MYOPATHIES, priority 2022, published 2026).
